Measured values: ChEMBL document CHEMBL1132991, “Conformational selection of inhibitors and substrates by proteolytic enzymes: implications for drug design and polypeptide processing” (J Med Chem, 2000)

Target: Human immunodeficiency virus type 1 protease (Human immunodeficiency virus 1, UniProt Q72874)
Assay: binding affinity towards HIV-1 Protease enzyme

SMILES | Ki
CC[C@@H](C)[C@H](NC(=O)[C@H](Cc1ccccc1)NC(=O)[C@H](Cc1ccccc1)NC(=O)[C@@H](NC(=O)[C@H](CC(C)C)NC(C)=O)C(C)C)C(=O)N[C@H](C(N)=O)C(C)C | 60000 nM
CC(C)C[C@H](CC(=O)NO)C(=O)N[C@H]1Cc2cn(c3ccccc23)CCCCCCNC1=O | 1 nM
CC[C@H](C)[C@H](NC(=O)[C@H](Cc1ccccc1)NC[C@H](O)[C@@H]1Cc2ccc(cc2)OCCCC(=O)N[C@@H](CC(N)=O)C(=O)N1)C(=O)N[C@H](C(N)=O)C(C)C | 12 nM
N=C(N)NCCC[C@H]1NC(=O)[C@@H]2CCCN2C(=O)[C@@H](NC=O)CNC(=O)/C=C/C(Cc2ccc(O)cc2)NC(=O)[C@@H](Cc2ccccc2)NC(=O)C1=O (stereo partly drawn) | 10 nM
CC(C)C[C@@H](NC(=O)[C@H](O)COS(=O)(=O)O)C(=O)N[C@@H]1C(=O)N[C@@H](CCCNC(=N)N)C(=O)N[C@H]2CC[C@H](O)N(C2=O)[C@@H](CC(C)C)C(=O)N(C)[C@H](Cc2ccc(O)cc2)C(=O)N[C@H](C(C)C)C(=O)O[C@@H]1C [PROTEOLYTIC ENZYME INHIBITOR] | 1 nM

The next lines start with the values.

Ki | SMILES
800 nM | CC[C@H](C)[C@@H]1NC(=O)[C@@H](NC(=O)[C@@H]2Cc3ccc(cc3)OCCCCC(=O)N[C@@H](C(C)C)C(=O)N2)Cc2ccc(cc2)OCCCNC1=O
4 nM | CC[C@H](C)[C@@H]1NC(=O)[C@@H](C(N)C[C@@H](O)C(Cc2ccccc2)NC(=O)OC(C)(C)C)Cc2ccc(cc2)OCCCNC1=O (stereo partly drawn)
3 nM | CC[C@H](C)[C@@H]1NC(=O)[C@@H](C(N)C[C@@H](O)[C@@H]2Cc3ccc(cc3)OCCCCC(=O)N[C@@H](C(C)C)C(=O)N2)Cc2ccc(cc2)OCCCNC1=O (stereo partly drawn)
